The text below walks through data of patent publication US11904051B2, “Shear stress sensitive liposomes” (Universität Basel, priority 2018, dated 2024).

Values joined by “and” are separate entries in the source; they are usually repeats but may differ in a detail not shown here. Equal entries are not always repeated.

For data set [1] the following is noted: reported previously; cited from earlier work.
Data set [2] is described as follows: Cryo-TEM of liposomal suspensions of the SANS study. The class given is physicochemical. As to the method:
The liposomal suspensions were diluted at a ratio of 1:2 with D2O, to a final concentration of 5 mg/mL. Next, 4 μL aliquots of each suspension were adsorbed onto a holey carbon-coated grid (Lacey, Tedpella, USA), blotted with Whatman 1 filter paper and vitrified into liquid ethane at a temperature of −178° C., using a Leica GP plunger (Leica, Austria). Frozen grids were transferred onto a Talos electron microscope (Thermo Fisher, USA), using a Gatan 626 cryo-holder. Electron micrographs were recorded at an accelerating voltage of 200 kV and a nominal magnification of 45,000×, using a low-dose system (20 e^−/Å^2) and keeping the sample at liquid nitrogen temperature. Micrographs were recorded on the CETA camera. Pixel size at the sample level was (3.26 Å)^2.

Data set [3] is described as follows: Dynamic light scattering of liposome formulations before and after SANS heating cycles. Conditions: for PDI, After heating / Size (hydrodynamic), After heating: after the SANS experiments (n = 3); for Size (hydrodynamic), After heating: heating to 42° C. and back, eight months after; for Size (hydrodynamic), Before heating / PDI, Before heating: before the SANS experiments (n = 5); for Size (hydrodynamic), Before heating: room temperature, D2O. The class given is physicochemical. The protocol:
A library of artificial phospholipids was synthesised. Table 5 summarises the characterisation of the liposomal formulations concerning hydrodynamic size and polydispersity, before and after the temperature-dependent SANS measurements. The size of the DPPC and Pad-PC-Pad liposomes was (120±2) nm with a polydispersity index between 0.01 and 0.20. […] Pad-Pad-PC and Sur-PC-Sur liposomes were 400 to 1,500 nm in size with a polydispersity index of 0.57.
DLS measurements were carried out on a DelsaMax PRO (Beckman Coulter, USA) at room temperature and at a lipid concentration of 0.3 mg/mL in D2O. The data were averaged among five independent measurements before heating cycles and three measurements eight months after applying heating cycles. Data were treated with the cumulant analysis method.

A short description of data set [4]: SAXS measurement of liposomes under static conditions (glass capillary). The class given is physicochemical. As to conditions: static condition. From the text: The investigated q-range between 0:02 nm^−1 and 1:65 nm^−1 corresponds to real-space distances d between 314 and 3 nm and, therefore, covers almost the entire nanometer range relevant for the characterization of the liposomes. The diagrams in FIG. 11 show the radially integrated scattering signal of DPPC-DSPE/PEG (top panel) and Pad-PC-Pad (bottom panel) liposomes acquired in suitable glass capillaries.
Suitable models are often utilized in the interpretation of the scattering signal of the system investigated. Herein, the scattering curves of DPPC/DSPE-PEG and Pad-PC-Pad were both fitted using a decoupling approach, which allowed to factorize the total form factor as product of a cross section term for long dimension and a cross section term for shorter dimension (Porod et al., IV. Acta Physica Austriaca 1948, 2, 255-292). To fit the form factor related to the overall shape of DPPC/DSPE-PEG, a thin spherical shell model was used (Breÿler et al., Journal of Applied Crystallography 2015, 48, 1587-1598), whereas the intensity peak related to the bilayer was fitted using a function for a bilayer with a Gaussian electron density profile (Pabst et al., Journal of Applied Crystallography 2003, 36, 1378-1388; Pabst et al., Physical Review E 2000, 62, 4000). The model utilized to fit the bilayer provided the bilayer thickness as the distance head-to-head dhh between the two phospholipid heads and the standard deviation over the phoshpolipid heads.
To fit the form factor related to the overall shape of Pad-PC-Pad a thin ellipsoidal shell model was used (Olson et al., Biochimica et Biophysica Acta (BBA)—Biomembranes 1979, 557, 9-23). An eccentricity E of 0.43 was found. As for DPPC/DSPE-PEG, the intensity peak related to the phospholipid head-to-head distance dhh was fitted using a function for a bilayer with a Gaussian electron density profile (Pabst et al., Journal of Applied Crystallography 2003, 36, 1378-1388; Pabst et al., Physical Review E 2000, 62, 4000) and a normal distribution over dhh. […]

`CCCCCCCCCCCCCCCC(=O)OC[C@H](COP(=O)([O-])OCC[N+](C)(C)C)OC(=O)CCCCCCCCCCCCCCC` [DPPC, 1,2-dipalmitoyl-sn-glycero-3-phosphocholine]: the “Tm, main phase transition temperature” value in data set [1] is 41 °C. Further, in data set [2] (after SANS heat treatment and eight months' storage), the “mean size of liposomes derived from cryo-TEM images” value worked out at 87±20 nm. The multi-lamellar liposomes entry in data set [2] (determined by cryo-TEM) is reported as “About 16%”. In data set [3], the “PDI, After heating” value was 0.33 ± 0.02; the “Size (hydrodynamic), After heating” value is given as 600 ± 40 nm; the “Size (hydrodynamic), Before heating” value came to 120±2 nm. In data set [3] (listed as DPPC (1)), the “Size (hydrodynamic), Before heating” value is 120 ± 2 nm and the “PDI, Before heating” value was determined as 0.01 ± 0.01.
On to `CCCCCCCCCCCCCCCC(=O)NCC(CNC(=O)CCCCCCCCCCCCCCC)OP(=O)([O-])OCC[N+](C)(C)C` [Pad-PC-Pad, 1,3-palmitoylamido-1,3-deoxy-sn-glycero-2-phosphatidylcholine], for which, in data set [1], the “Tm, main phase transition temperature” value was 37 °C. The “diameter of flattened liposomes and/or bicelles (cryo-TEM)” value in data set [2] (heated above Tm) is “about 50 nm”. Besides, the “average size of liposomes estimated from cryo-TEM images” value in data set [2] (not heated above transition temperature) is on record as 92±14 nm. Further, the head-to-head distance dhh in data set [4] (bilayer Gauss electron density profile model) was 3.3±0.8 nm and 3.3 nm. In addition, in data set [4] (glass capillary, flow rate 0), the “Radius of gyration Rg” value is 60.3 nm and 60.3 ± 0.4 nm. In data set [4] (thin ellipsoidal shell model), the “eccentricity ε” value is recorded as 0.43. Further, in data set [3], the “PDI, After heating” value was determined as 0.33 ± 0.04; the “Size (hydrodynamic), After heating” value was found to be 53 ± 4 nm; the “Size (hydrodynamic), Before heating” value worked out at 120±2 nm. Besides, in data set [3] (listed as Pad-PC-Pad (4)), the “Size (hydrodynamic), Before heating” value came to 126 ± 4 nm and the “PDI, Before heating” value is 0.19 ± 0.04.
For `CCCCCCCCCCCCCCCCC(=O)NCC(CNC(=O)CCCCCCCCCCCCCCCC)OP(=O)([O-])OCC[N+](C)(C)C` [Rad-PC-Rad, 1,3-diheptadecanamidopropan-2-yl (2-(trimethylammonio)ethyl) phosphate], in data set [1], the “Tm, main phase transition temperature” value is 45 °C. Further, in data set [3], the “DLS most probable / dominant or smaller population size” value was “about 150 nm”; the “PDI, After heating” value was 0.32 ± 0.03; the “Size (hydrodynamic), After heating” value was found to be 700 ± 100 nm; the “PDI, Before heating” value came to 0.57 ± 0.01. Also, in data set [3] (listed as Rad-PC-Rad (5)), the “Size (hydrodynamic), Before heating” value came out at 150 ± 3 nm.
